Assay results published in patent US20160002174A1, “CXCR4 Antagonists for the Treatment of Medical Disorders” (Emory University, priority 2005, published 2016).
Entries after “also recorded” stand apart in the source; their conditions may differ.

Columns and labels:
[1] = biological target: CXCR4 (Homo sapiens, UniProt P61073); experiment: Competition assay using biotin-labeled TN14003 and streptavidin-conjugated rhodamine on tumor cells; type: binding; details: cells pre-incubated with different concentrations
Protocol: FIG. 8 is images of fluorescens micrographs of stained cells. Biotin-labeled TN14003 was used to detect CXCR4 protein from the cells pre-incubated with various concentrations of WZZL811S.
Using biotin-labeled TN14003 along with streptavidin-conjugated rhodamine allowed a determination of the binding efficiency of these chemicals to the SDF-1 binding site of CXCR4 on tumor cells and compared it to AMD3100-SDF-1 interactions (FIG. 7). […] Cells were pre-incubated with different concentrations of AMD3100. […] Therefore, one of these compounds, WZZL811S, was selected to study its therapeutic potential based on potency and low toxicity to cells (FIG. 9).

[2] = test system: CXCR4 protein levels; experiment: CXCR4 protein levels in treated cells; type: cell-based, human
Source text: (§1) CXCR4/SDF-1 interaction activates PI3K/Akt and Ras/Raf/MEK/Erk pathways in a Gαi protein (PTX-sensitive)-dependent manner.

[3] = cited from earlier work
[4] = test system: phosphorylation of Akt; experiment: SDF-1-stimulated phosphorylation of Akt (western blot); type: cell-based, human; details: for concentration blocking Akt activation: 100 ng/ml SDF-1 for 30 minutes; for blocking of SDF-1-stimulated Akt phosphorylation (dose-dependent): MDA-MB-231 cells, 100 ng/ml SDF-1 for 30 min
Source text: FIG. 2 is an image of a western blot showing phosphorylation of Akt.
FIG. 10 is a graph and representative blot of matrigel invasion and Akt phosphorylation in cells.
as §1

[5] = test system: Erk1/2 phosphorylation; experiment: SDF-1-stimulated Erk1/2 phosphorylation; type: cell-based, human; details: data not shown
Source text: as §1

[6] = test system: SHIV; experiment: SHIV infection, p27 antigen capture; type: cell-based; details: 0.1, 1, 10 or 100 nM drug prior to infection; 2 to 5 days
Protocol: The effect of the test compounds on HIV infection in model cells was analyzed by p27 antigen capture using SHIV infected cells. Cells were incubated with 0, 0.1, 1, 10 or 100 nM drug prior to infection with SHIV. Viral titer was measured after infection by analyzing levels of p27 antigen. […] The inhibition was measurable at 2 days, and continued to 5 day incubations.

[7] = test system: MDA-MB-231 cells; experiment: Cell viability of MDA-MB-231 cells; type: cell-based, human; details: even at 100 μM (the highest concentration tested)
[8] = test system: metastatic 686LN cells; experiment: Head & Neck cancer metastasis model, 686LN cells injected through the tail vein, FDG-PET; type: in vivo, mice; details: 20 mg/mouse/twice weekly, thirty days
Protocol: The metastatic 686LN cells were injected intravenously through the tail vein to generate experimental animal models for Head & Neck cancer metastasis, modulated via CXCR4. […] These 3-D projection images show lung metastases well (bone mets and liver mets were apparent in axial section images of mice in control groups, data not shown).

[9] = test system: CXCR4/SDF-1 mediated invasion of MDA-MB-231; experiment: Matrigel invasion assay, CXCR4/SDF-1-mediated invasion; type: cell-based, human; details: MDA-MB-231, 2 nM
Protocol: FIG. 10 is a graph and representative blot of matrigel invasion and Akt phosphorylation in cells. A: Inhibition of CXCR4/SDF-1 mediated invasion of MDA-MB-231 in vitro by WZZL811S. CXCR4/SDF-1 mediated invasion of MDA-MB-231 was blocked either by 2 nM of TN14003 or WZZL811S. B: Incubating MDA-MB-231 cells with 100 ng/ml of SDF-1 for 30 min stimulated phosphorylation of Akt that blocked by WZZL811S in a dose-dependent manner
Lowering CXCR4 mRNA levels by siRNAs inhibited CXCR4/SDF-1-mediated invasion as measured by a matrigel invasion assay. The CXCR4 ligand, SDF-1 (400 ng/ml) was added to the lower chamber to attract CXCR4-positive breast cancer cells to migrate through the matrigel. The invasion of MDA-MB-231 cells transfected with siRNA1 decreased to 39±4% of the control cells, 51±8% with siRNA2, and only 16±6% with both siRNA1+2 (FIG. 3A).
WZZL811S was tested in a matrigel invasion assay to determine whether it can inhibit CXCR4/SDF-1-mediated invasion.

[10] = test system: human umbilical vein endothelial cells (HUVECs); experiment: Endothelial capillary tube formation assay; type: cell-based; details: 100 nM, SDF-1 100 ng/ml, 18 hours
Protocol: The anti-angiogenic effect of test compounds was measured by analyzing endothelial cell growth and tube formation. The angiogenic effect of SDF-1 (100 ng/ml) on capillary formation by human umbilical vein endothelial cells (HUVECs) was examined in vitro using Matrigel-coated 24-well plates precoated with Matrigel and incubated for 18 hours. The angiogenic effect of SDF-1 was inhibited by either 100 nM TN14003 (peptide-based CXCR4 antagonist) or WZZL811S treatment (FIG. 14a, graph FIG. 14b).

[11] = test system: HIV; details: MT-4 cells; read-out: concentration required for 50% protection of HIV-induced cytopathogenicity; cited from earlier work
[12] = test system: MT-4 cells; details: cited from earlier work

CXCR4, sequence (P61073 whole entry): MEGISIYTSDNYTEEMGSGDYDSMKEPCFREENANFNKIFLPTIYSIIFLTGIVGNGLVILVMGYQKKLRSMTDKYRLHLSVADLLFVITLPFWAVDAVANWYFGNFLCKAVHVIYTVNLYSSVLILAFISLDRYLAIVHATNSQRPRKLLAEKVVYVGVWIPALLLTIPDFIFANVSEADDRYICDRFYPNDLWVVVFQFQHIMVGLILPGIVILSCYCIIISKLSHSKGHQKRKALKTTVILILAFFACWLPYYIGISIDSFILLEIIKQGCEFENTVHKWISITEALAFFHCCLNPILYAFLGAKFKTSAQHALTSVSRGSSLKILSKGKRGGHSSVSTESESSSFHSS

| Compound | concentration needed to compete against biotin-labeled TN14003 [1] [µM] | effect on CXCR4 protein levels [2] | side effect in clinical study [3] | concentration blocking Akt activation [4] | blocking of SDF-1-stimulated Akt phosphorylation (dose-dependent) [4] | concentration attenuating Erk1/2 phosphorylation [5] | inhibition of SHIV infection (p27 antigen) [6] | effect on cell viability [7] | efficacy relative to TN14003 [8] [%] | blocking of SDF-1-induced matrigel invasion [9] | inhibition of the angiogenic effect of SDF-1 (tube formation) [10] | EC50 [11] [nM] | metastasis of 686LN cells to organs [8] | concentration leading to 50% toxicity [12] [µM] |
| --- | --- | --- | --- | --- | --- | --- | --- | --- | --- | --- | --- | --- | --- | --- |
| C1=CC(CN2CCCNCCNCCCNCC2)CC=C1CN1CCCNCCNCCCNCC1 (stereo not drawn) [AMD3100] | 10 | did not affect | cardiac-related side effect | a few nano molar | blocked | 100 nM |  |  |  |  |  |  |  |  |
| c1ccc(NCc2ccc(CNc3ccccn3)cc2)nc1 [WZZL811S] |  |  |  |  | blocked |  | inhibited SHIV infection at all concentrations tested | did not decrease cell viability | 80 | blocked; also recorded: as potent as TN14003 | inhibited |  |  |  |
| TN14003 |  | did not affect |  | sub-nano molar | blocked | sub-nano molar |  |  |  | blocked | inhibited | 0.6 | failed to metastasize to any organs | 410 |
